# Measured values reported in ChEMBL document CHEMBL3885881, “DrugMatrix”.
# Organism: Rattus norvegicus
# Assay: DrugMatrix - Regimen: Daily Repeat
# Assay type: toxicity, organism-based, Sprague-Dawley
# Parameters: regimen Daily Repeat, gender Male, age 6-8 weeks
# Conditions: in vivo, po, 50 mg/kg, route oral GAVAGE, dose level Low, vehicle .5 % CMC; for ABSOLUTE BASOPHIL / ABSOLUTE EOSINOPHIL / ABSOLUTE LYMPHOCYTE / ABSOLUTE MONOCYTE / ABSOLUTE SEGMENTED NEUTROPHIL / BASOPHIL / EOSINOPHIL / ERYTHROCYTE COUNT / HEMATOCRIT / HEMOGLOBIN / LEUKOCYTE COUNT / LYMPHOCYTE / MEAN CORPUSCULAR HEMOGLOBIN / MEAN CORPUSCULAR HEMOGLOBIN CONCENTRATION / MONOCYTE / NEUTROPHIL / NUCLEATED RED BLOOD CELLS / PLATELET COUNT: tissue Blood; for ALANINE AMINOTRANSFERASE / ALBUMIN / ALKALINE PHOSPHATASE / ASPARTATE AMINOTRANSFERASE / BLOOD UREA NITROGEN / CARBON DIOXIDE / CHLORIDE / CHOLESTEROL / CREATININE / GLUCOSE / LACTATE DEHYDROGENASE / LIPASE / PHOSPHORUS / POTASSIUM / SODIUM / TOTAL BILIRUBIN / TOTAL PROTEIN / URIC ACID: tissue Plasma
compound,measurement,setting,value
N[C@@H]1[C@H]2CN(c3nc4c(cc3F)c(=O)c(C(=O)O)cn4-c3ccc(F)cc3F)C[C@@H]12 [TROVAFLOXACIN],ABSOLUTE BASOPHIL,"72 h, time 3 day",0 CELLS/uL
same,ABSOLUTE EOSINOPHIL,"72 h, time 3 day",332.33 CELLS/uL
same,ABSOLUTE LYMPHOCYTE,"72 h, time 3 day",13247 CELLS/uL
same,ABSOLUTE MONOCYTE,"72 h, time 3 day",338.33 CELLS/uL
same,ABSOLUTE SEGMENTED NEUTROPHIL,"72 h, time 3 day",2282.33 CELLS/uL
same,BASOPHIL,"72 h, time 3 day",0%
same,EOSINOPHIL,"72 h, time 3 day",2%
same,ERYTHROCYTE COUNT,"72 h, time 3 day",5.64 x10E6/uL
same,HEMATOCRIT,"72 h, time 3 day",34.17%
same,HEMOGLOBIN,"72 h, time 3 day",12.5 G/DL
same,LEUKOCYTE COUNT,"72 h, time 3 day",16.2 x10E3/uL
same,LYMPHOCYTE,"72 h, time 3 day",82%
same,MEAN CORPUSCULAR HEMOGLOBIN,"72 h, time 3 day",22.13 pg
same,MEAN CORPUSCULAR HEMOGLOBIN CONCENTRATION,"72 h, time 3 day",36.57 G/DL
same,MONOCYTE,"72 h, time 3 day",2%
same,NEUTROPHIL,"72 h, time 3 day",14%
same,NUCLEATED RED BLOOD CELLS,"72 h, time 3 day",0 /100WBC
same,PLATELET COUNT,"72 h, time 3 day",1160 x10E3/uL
same,ALANINE AMINOTRANSFERASE,"72 h, time 3 day",50.67 u/L
same,ALBUMIN,"72 h, time 3 day",4.23 G/DL
same,ALKALINE PHOSPHATASE,"72 h, time 3 day",421 u/L
same,ASPARTATE AMINOTRANSFERASE,"72 h, time 3 day",75.33 u/L
same,BLOOD UREA NITROGEN,"72 h, time 3 day",16 mg/dL
same,CARBON DIOXIDE,"72 h, time 3 day",27 mmol/L
same,CHLORIDE,"72 h, time 3 day",102.33 MEQ/L
same,CHOLESTEROL,"72 h, time 3 day",86.33 mg/dL
same,CREATININE,"72 h, time 3 day",0.17 mg/dL
same,GLUCOSE,"72 h, time 3 day",151 mg/dL
same,LACTATE DEHYDROGENASE,"72 h, time 3 day",114.67 u/L
same,LIPASE,"72 h, time 3 day",9.33 u/L
same,PHOSPHORUS,"72 h, time 3 day",13.33 mg/dL
same,POTASSIUM,"72 h, time 3 day",6.87 MEQ/L
same,SODIUM,"72 h, time 3 day",148.2 MEQ/L
same,TOTAL BILIRUBIN,"72 h, time 3 day",0.17 mg/dL
same,TOTAL PROTEIN,"72 h, time 3 day",6.3 G/DL
same,URIC ACID,"72 h, time 3 day",1.47 mg/dL
same,ABSOLUTE BASOPHIL,"120 h, time 5 day",0 CELLS/uL
same,ABSOLUTE EOSINOPHIL,"120 h, time 5 day",225.67 CELLS/uL
same,ABSOLUTE LYMPHOCYTE,"120 h, time 5 day",14834.67 CELLS/uL
same,ABSOLUTE MONOCYTE,"120 h, time 5 day",380.67 CELLS/uL
same,ABSOLUTE SEGMENTED NEUTROPHIL,"120 h, time 5 day",2392.33 CELLS/uL
same,BASOPHIL,"120 h, time 5 day",0%
same,EOSINOPHIL,"120 h, time 5 day",1.33%
same,ERYTHROCYTE COUNT,"120 h, time 5 day",5.73 x10E6/uL
same,HEMATOCRIT,"120 h, time 5 day",34.4%
same,HEMOGLOBIN,"120 h, time 5 day",12.63 G/DL
same,LEUKOCYTE COUNT,"120 h, time 5 day",17.83 x10E3/uL
same,LYMPHOCYTE,"120 h, time 5 day",82.67%
same,MEAN CORPUSCULAR HEMOGLOBIN,"120 h, time 5 day",22.13 pg
same,MEAN CORPUSCULAR HEMOGLOBIN CONCENTRATION,"120 h, time 5 day",36.73 G/DL
same,MONOCYTE,"120 h, time 5 day",2%
same,NEUTROPHIL,"120 h, time 5 day",14%
same,NUCLEATED RED BLOOD CELLS,"120 h, time 5 day",0 /100WBC
same,PLATELET COUNT,"120 h, time 5 day",1198 x10E3/uL
same,ALANINE AMINOTRANSFERASE,"120 h, time 5 day",44.67 u/L
same,ALBUMIN,"120 h, time 5 day",4 G/DL
same,ALKALINE PHOSPHATASE,"120 h, time 5 day",375.33 u/L
same,ASPARTATE AMINOTRANSFERASE,"120 h, time 5 day",95 u/L
same,BLOOD UREA NITROGEN,"120 h, time 5 day",15.33 mg/dL
same,CARBON DIOXIDE,"120 h, time 5 day",27.67 mmol/L
same,CHLORIDE,"120 h, time 5 day",100.33 MEQ/L
same,CHOLESTEROL,"120 h, time 5 day",77.67 mg/dL
same,CREATININE,"120 h, time 5 day",0.14 mg/dL
same,GLUCOSE,"120 h, time 5 day",165.33 mg/dL
same,LACTATE DEHYDROGENASE,"120 h, time 5 day",482.33 u/L
same,LIPASE,"120 h, time 5 day",9 u/L
same,PHOSPHORUS,"120 h, time 5 day",13.63 mg/dL
same,POTASSIUM,"120 h, time 5 day",6.38 MEQ/L
same,SODIUM,"120 h, time 5 day",144.47 MEQ/L
same,TOTAL BILIRUBIN,"120 h, time 5 day",0.13 mg/dL
same,TOTAL PROTEIN,"120 h, time 5 day",5.9 G/DL
same,URIC ACID,"120 h, time 5 day",2.13 mg/dL
